Laboratory results: patent US20160067314A1, “COMPOSITIONS AND METHODS FOR INHIBITING CHEMORESISTANCE IN CANCER AND IMPROVING RESPONSE TO THERAPY” (UNIVERSITY OF VIRGINIA PATENT FOUNDATION, priority 2013, published 2016)

Assays:
RPMI7951 cells = experiment: Ara-C concentration killing ~85% of adherent cells (preliminary experiments); format: cell-based, human; conditions: Ara-C for 3 days
From the text: (§1) FIG. 1. ALCAM correlates with detachment-induced therapy resistance. Relative ALCAM expression levels in melanoma measured by (A) microarray analysis and (B) RT-PCR. Expression levels are normalized to M21. Values are means±SE. (C) Relative ALCAM expression versus cell survival in additional melanoma cell lines. The graph represents detachment-induced resistance (“delta”) as the fold difference in survival between suspended versus adherent cells. Survival of adherent and suspended cells after treatment with chemotherapy (Ara-C) for 3 days was determined by replating on fibronectin. Concentrations of Ara-C were chosen for each cell line to kill ˜85% of adherent cells as determined in preliminary experiments. Concentrations were: A208 cells, 0.5 μM; A375.S2 cells, 0.3 μM; RPMI7951 cells, 5 μM, FM3: 10 μM). (D) Delta was plotted against ALCAM message level determined by RT-PCR. Values are means±SE, n>3.
(§2) The human melanoma cell lines; M21, VMM12, VMM15, VMM1, VMM5A, VMM18 were cultured as described [Molhoek, 2008; Schwartz, 2008]. RPMI7951, A208, and A375.S2 were cultured in DMEM/F12 medium supplemented with 5% heat inactivated fetal bovine serum, 15 mM HEPES and penicillin-streptomycin. FM3 cells were grown in DMEM supplemented with 10% fetal bovine serum and penicillin-streptomycin. Cell survival assays and colony assay were performed as described before [Schwartz, 2008].

FM3 = experiment: as above; format: cell-based, human; conditions: Ara-C for 3 days
From the text: as §1, §2

A375.S2 cells = experiment: as above; format: cell-based, human; conditions: Ara-C for 3 days
From the text: as §1, §2

A208 cells = experiment: as above; format: cell-based, human; conditions: Ara-C for 3 days
From the text: as §1, §2

subcutaneous M21 tumors [1] = experiment: Mouse tumor growth, subcutaneous M21 tumors, FN-COMP and/or cisplatin; format: in vivo; conditions: SCID mice; for Tumor growth / tumor size: s.c. M21 tumors, i.p., three treatments ~1 week apart, cisplatin 8 then 3.5 mg/kg, FN-COMP 500 μg/mouse
Experimental: (§3) FIG. 4, Example 2—FN-COMP in chemotherapy in vivo. (A) SCID mice were injected with 500 μg of FN-COMP. At the indicated times, plasma was analyzed by western blotting for fibronectin (FN). (B) Mice with palpable subcutaneous tumors were treated with cisplatin (CD), FN-COMP (FNC) alone, or CD plus FNC. Mice received 3 successive treatments 1 week apart. Tumor volumes were then followed. Values are means±SE, n=10-15 mice. For CD vs. CD+FNC: *P<0.0031. The error bars are asymmetric because the analysis was done in the log-scale, and then converted back to the original scale. Qualitatively similar results were obtained in 2 independent experiments.
(§4) Tumor generation in 6-8 wk old male SCID mice (Charles River Laboratories) and tumor measurement were done as described. When tumors were first palpable, mice were injected intraperitoneally (i.p.) with cisplatin (8 mg/kg: first week and 3.5 mg/kg: second and third weeks), FN-COMP (500 μg/mouse) or both for 3 consecutive weeks. The tumor volumes were recorded weekly. To assay levels in the blood, SCID mice with no tumors were injected intraperitoneally with FN-COMP (500 μg/mouse). Blood was collected at 0, 3, 6, or 24 h post injection. Plasma was subjected to Western blotting with the indicated antibodies. All animal procedures were done according to our institutional Animal Care and Use Committee guidelines.
Statistical analyses were done as described. Briefly, repeated measures models were used to compare tumor growth in control, cisplatin alone, FN-COMP alone and cisplatin+FN-COMP groups. These models account for the correlations among measurements taken from the same animal over time. We used linear models for the log-transformed tumor growth and the assumption that the correlation between measurements decreases with the amount of time between the measurements. F-tests based on contrasts were used to make specific comparisons between groups. All analyses were carried out in SAS 9.2 and GAUSS 10.0.

subcutaneous M21 tumors [2] = experiment: Mouse tumor growth, subcutaneous M21 tumors, AZN-L50 and/or cisplatin; format: in vivo; conditions: SCID mice, s.c. M21 tumors, i.p., two treatments ~1 week apart; cisplatin 8 then 3.5 mg/kg, AZN-L50 100 μg/mouse
Experimental: (A) Mice with palpable subcutaneous tumors were treated with cisplatin alone (CD), AZN-L50 (AZN) alone, or CD plus AZN-L50 (AZN+CD). Mice received 2 treatments 1 week apart. Tumor volume was then followed. Values are means±SE; n=8-11 mice.
Tumor generation and measurement was done as described [Schwartz, 2008]. Briefly male SCID mice (Charles River) were injected s.c. with 100,000 M21 cells. When tumors were first palpable, mice were injected I.P with cisplatin (8 mg/kg: first week and 3.5 mg/kg: second week), AZN-L50 (100 μg/mouse) or both for 2 consecutive weeks. The tumor volumes were recorded weekly.
All statistical analyses were done as described [Schwartz, 2008]. Briefly repeated measures models were used to compare tumor growth in control, cisplatin alone, AZN-L50 alone and cisplatin+AZN-L50 groups. These models account for the correlations among measurements taken from the same animal over time. We used linear models for the log-transformed tumor growth and the assumption that the correlation between measurements decreases with the amount of time between the measurements. F-tests based on contrasts were used to make specific comparisons between groups. All analyses were carried out in SAS 9.2 and GAUSS 10.0.

VMM12 melanoma cells [3] = experiment: Short term survival assay after chemotherapy, adherent or suspended cells; format: cell-based, human; conditions: VMM12, siRNA transfected, 10 μM cisplatin, 3 days
Experimental: (§5) FIG. 2. ALCAM mediates detachment-induced therapy resistance. (A) ALCAM expression by RT-PCR in M21 melanoma cells after transfection with indicated siRNAs. Values are means±SE. (B) Proliferation of M21 cells expressing either ALCAM or control siRNA. 5×10^5 cells were plated and after 72 h counted. Values are means±SD, (C) Short term survival assays—cells transfected with the indicated siRNAs were treated with chemotherapy (M21:10 μM Ara-C; VMM12:10 μM cisplatin) while adherent (Ad) or suspended (Sus). Cell survival was assayed after 3 days. Values are means±SE, n>3. (D) Adherent or suspended M21 cells were treated with 10 μM Ara-C, then washed and re-plated, and colonies counted after 10 days. Values are means±SD, n=3. **P<0.01, *P<0.05
(§6) We next asked whether ALCAM might play a causal role in chemoresistance induced by loss of integrin-mediated cell adhesion. We therefore designed and tested several siRNA sequences. […] We next examined chemosensitivity in adherent and suspended M21 and VMM12 melanoma lines. Cells transfected with two distinct ALCAM siRNAs (#10 or #11), or control siRNA, were treated with chemotherapy for 3 days, then survival assayed by re-plating on fibronectin. […] Control siRNA had no effect in either condition.
(§7) ALCAM can mediate homophilic adhesion, as well as heterophilic adhesion to CD6, both of which are blocked by a monoclonal antibody, AZN-L50 (van Kempen J Biol Chem. 2001; 276:25783-90; Zimmerman Blood. 2006; 107:3212-20). […] M21 and VMM12 cells were subject to chemotherapy for 72 h while adherent or suspended, in the presence or absence of AZN-L50. Survival was then assayed as before.
as §2

M21 melanoma cells [4] = experiment: as above; format: cell-based, human; conditions: M21, siRNA transfected, 10 μM Ara-C, 3 days
Experimental: as §5, §6, §7, §2

[5] = FN-COMP levels in blood after intraperitoneal injection, plasma Western blot for fibronectin; format: in vivo; conditions: SCID mice, 500 μg/mouse i.p.
Experimental: as §3, §4

integrin signaling = experiment: Tyrosine phosphorylation in suspended cells, Western blot with pY20; format: cell-based; conditions: suspended M21 melanoma or mouse 3T3 cells, FN-COMP 40 μg/ml
Experimental: FIG. 2, Example 2—FN-COMP stimulates signaling in vitro. Either M21 melanoma or mouse 3T3 cells were left adherent (Ad) or detached and kept in suspension (sus) for 1 h. Suspended cells were either treated with of FN-COMP at 40 μg/ml for indicated times or left untreated. Lysates were analyzed by Western blotting using antiphosphotyrosine antibody pY20. Tubulin was used as a loading control. n=2.
Cells were lysed as previously described. Proteins were separated on SDS-PAGE gels, transferred, blocked, and probed with the indicated primary antibodies. Blots were washed, incubated with secondary antibodies and developed using ECL reagents (Pierce) and film (Kodak). FN-COMP under reducing and non-reducing condition was loaded on SDSPAGE gels and was subjected electrophoresis. Gels were stained with Coomassie Blue to visualize the bands.

VMM18 melanoma cells = experiment: Cell survival of non-adherent cells after FN-COMP and Ara-C; format: cell-based, human; conditions: VMM18 suspended, FN-COMP 40 μg/ml 30-45 min, then Ara-C 10 μM, survival 72 h later
Experimental: (§8) (A) M21, (B) VMM12 or (C) VMM18 melanoma cells were left adherent (Ad) or detached and kept in suspension (Sus) for 1 h. Suspended cells were then treated with of FN-COMP (FNC) at 40 μg/ml for 30-45 min followed by treatment with either 10 Gy X-irradiation (A) or Ara-C at 10 μM (B and C). Cell survival was assayed 72 h later. Values are means } SE, n=3. *P<0.05.
(§9) The human melanoma cell lines; M21, VMM12, VMM18 were cultured as described. Cell survival assays and colony assay were performed as described. Cells were irradiated using an X-ray irradiator at a dose rate of 3.3 Gy/min.

VMM12 melanoma cells [6] = experiment: as above; format: cell-based, human; conditions: VMM12 suspended, FN-COMP 40 μg/ml 30-45 min, then Ara-C 10 μM, survival 72 h later
Experimental: as §8, §9

M21 melanoma cells [7] = experiment: Cell survival of non-adherent cells after FN-COMP and X-irradiation; format: cell-based, human; conditions: M21 suspended, FN-COMP 40 μg/ml 30-45 min, then 10 Gy X-irradiation, survival 72 h later
Experimental: as §8, §9

human melanoma = conditions: mouse xenografts of human melanoma, previous report [7]; cited from earlier work
[8] = system: focal adhesion kinase and p130cas; conditions: observed at nM concentrations; cited from earlier work

Nc1ccn([C@@H]2O[C@H](CO)[C@@H](O)[C@@H]2O)c(=O)n1 [Ara-C, 1-β-D-arabinofuranosylcytosine]
Concentration of Ara-C chosen to kill ˜85% of adherent cells (RPMI7951 cells): 5 µM | Concentration of Ara-C chosen to kill ˜85% of adherent cells (FM3): 10 µM | Concentration of Ara-C chosen to kill ˜85% of adherent cells (A375.S2 cells): 0.3 µM | Concentration of Ara-C chosen to kill ˜85% of adherent cells (A208 cells): 0.5 µM

N.N.[Cl][Pt][Cl] [cisplatin, cis-Dichlorodiamine platinum(II)]
Tumor growth / tumor size (subcutaneous M21 tumors [1]): Neither FN-COMP alone nor cisplatin alone had significant effects on tumor growth | Tumor growth / tumor size (subcutaneous M21 tumors [2]): Neither AZN-L50 alone nor cisplatin alone had significant effects on tumor growth

ALCAM siRNA #10: siRNA that targets ALCAM, 5-GGAAACUAUGUCUGCGAAA-3 (SEQ ID NO:5) (listed as RNA, chemistry not given here)
Cell survival, adherent cells (VMM12 melanoma cells [3]): no effect | Cell survival, suspended cells (VMM12 melanoma cells [3]): drastically reduced cell survival | Cell survival, adherent cells (M21 melanoma cells [4]): no effect | Cell survival, suspended cells (M21 melanoma cells [4]): drastically reduced cell survival

ALCAM siRNA #11: siRNA that targets ALCAM, 5′-CACCTGCTCGGTGACATATTA-3′ (SEQ ID NO:4), described before [Hong, 2010] (other strand not cited, further chemistry not given here)
Cell survival, adherent cells (VMM12 melanoma cells [3]): no effect | Cell survival, suspended cells (VMM12 melanoma cells [3]): drastically reduced cell survival | Cell survival, adherent cells (M21 melanoma cells [4]): no effect | Cell survival, suspended cells (M21 melanoma cells [4]): drastically reduced cell survival

FN-COMP: homo-pentameric construct of fibronectin peptides (type III repeats 5-11) linked by the assembly domain of COMP (amino acid residues 27-84)
Stability in blood after injection [5]: at least 24 h | Time of appearance in the blood [5]: ≤ 3 h | Side effects in the mice (subcutaneous M21 tumors [1]; 3 weekly i.p. treatments): not observed | Tumor growth / tumor size (subcutaneous M21 tumors [1]): Neither FN-COMP alone nor cisplatin alone had significant effects on tumor growth | Tyrosine phosphorylation (characteristic of integrin signaling) (integrin signaling): increased tyrosine phosphorylation of bands around 60, 75 and 125 kD | Response to therapy (chemosensitivity) of non-adherent cells (VMM18 melanoma cells): no effect | Response to therapy (chemosensitivity) of non-adherent cells (VMM12 melanoma cells [6]): improved chemo and radiosensitivity | Response to therapy (radiosensitivity) of non-adherent cells (M21 melanoma cells [7]): improved chemo and radiosensitivity

contortrostatin
Therapeutic responses when combined with chemotherapy (human melanoma): improved therapeutic responses | Tyrosine phosphorylation of integrin targets [8]: strongly increased
